Data published in patent US12576085B2, “Combination comprising an ATP analog and an adenosine receptor antagonist or a nucleobase/nucleoside analog for the treatment of cancer” (priority 2010, dated 2026).

Columns and labels:
[1] = test system: adenine nucleobase transporters; settings: read-out: IC50 for inhibition of adenine transport; 1 μM [3H]adenine, hRPTCs, sodium buffer pH 7.4, 2 minute incubation
Description: Human renal proximal tubule cells (hRPTCs) were seeded in 12-well plates at densities of 10^5 cells/well and grown for 7 days with medium changes every 3-4 days. On the day of experiments, growth medium was aspirated and cells were washed twice with 1.5 ml of 20 mM Tris-HCl buffer (pH 7.4) containing 150 mM NaCl, 1.2 mM MgCl2 and 1 mM CaCl2 (hereafter referred to as sodium buffer). […] At the end of 2 minute incubations, cells were washed twice with sodium buffer and intracellular accumulation of [^3H]adenine was determined by solubilizing cells with 5% Triton-X-100 and subsequent determination of radioactivity in a scintillation counter. Data are presented as percent of values obtained in the absence of a competitor (controls). Resulting concentration-effect curves were analyzed by nonlinear regression analysis using Graph Pad Prism software version 4.0 (Graph Pad Software Inc., San Diego, CA) to obtain IC50 values for the compounds.

T84 cells = assay: Short-circuit current (ISC, Cl- secretion) in T84 cells in Ussing chambers; type: cell-based, human; settings: for increase in ISC on basolateral addition of the compound alone: NBMPR 10 μM, imatinib 100 μM, no extracellular adenosine added; for increase in ISC on basolateral addition of the compound alone / currents on apical addition of the TKI: erlotinib 20 μM, gefitinib 100 μM; for effect of antagonist on currents induced by imatinib and adenosine: 10 μM antagonist after 100 μM imatinib and 1 μM adenosine
Description: T84 cells were routinely grown in DMEM/F12 (1:1) cell culture media with 10% FBS, 1 mM sodium pyruvate, 1× penicillin/streptomycin and 10 mM HEPES. For experiments described in this report, T84 cells were grown on 12 mm snapwell inserts for 6-8 days with media changes every 2-3 days. […] Compounds were added in small aliquots to the basolateral or apical chamber and the secretory response was measured as an increase in short-circuit current (ISC) due to Cl^− secretion and was monitored as a function of time.

[2] = patients treated with erlotinib; cited from earlier work
[3] = cited from earlier work

**Q.** For `COc1cc2c(Nc3ccc(Br)cc3F)ncnc2cc1OCC1CCN(C)CC1` [vandetanib], which IC50 [1] is on record?
**A.** ≥ 100 µM

**Q.** With `O=[N+]([O-])c1ccc(CSc2ncnc3c2ncn3[C@@H]2O[C@H](CO)[C@@H](O)[C@H]2O)cc1` [NBMPR, nitrobenzylmercaptopurine riboside] as the compound, how does the “ISC on addition of NBMPR after adenosine” value (T84 cells; 10 μM NBMPR after 1 μM adenosine, basolateral, FIG. 4) read?
**A.** much higher ISC

**Q.** What about the “induction of currents by NBMPR (retest)” value (T84 cells; 20 μM NBMPR basolateral, FIG. 7 panel B) of the same compound?
**A.** Induction of currents

**Q.** What about the “increase in ISC on basolateral addition of the compound alone” value (shortened to “increase in ISC on basolateral addition”) (T84 cells; basolateral) of the same compound?
**A.** steady increase in ISC with time

**Q.** With `Cn1c(=O)c2[nH]cnc2n(C)c1=O` [theophylline] as the compound, how does the “effect of antagonist on currents induced by imatinib and adenosine” value (T84 cells; basolateral, FIG. 10) read?
**A.** abolished

**Q.** And the “effect of antagonist on adenosine induced increase in ISC” value (T84 cells; 10 μM antagonist, adenosine alone, FIG. 5)?
**A.** blocked

**Q.** Which “ISC on addition of adenosine after NBMPR” value (T84 cells; 1 μM adenosine after 10 μM NBMPR, basolateral, FIG. 6) does the source give for `Nc1ncnc2c1ncn2[C@@H]1O[C@H](CO)[C@@H](O)[C@H]1O` [adenosine] here?
**A.** substantial increase in ISC

**Q.** And the “currents on addition of adenosine after erlotinib” value (T84 cells; 1 μM adenosine after 20 μM erlotinib, basolateral, FIG. 8)?
**A.** substantial induction of currents

**Q.** What about the “currents on addition of adenosine after gefitinib” value (T84 cells; 1 μM adenosine after 100 μM gefitinib, basolateral, FIG. 9) of the same compound?
**A.** substantial induction of currents

**Q.** And the “currents on addition of adenosine after imatinib” value (T84 cells; 1 μM adenosine after 100 μM imatinib, basolateral, FIG. 10)?
**A.** substantial induction of currents

**Q.** What about the “currents on addition of adenosine to apical and both sides” value (T84 cells; 1 μM adenosine, apical or both sides versus basolateral, FIG. 11) of the same compound?
**A.** much higher currents than on the basolateral side alone

**Q.** And the “ISC with increasing concentrations of adenosine” value (T84 cells; adenosine basolateral in 1 μM increments, FIG. 7 panel A)?
**A.** ISC increased

**Q.** Which “currents on apical addition of the TKI” value (T84 cells; FIG. 12) does the source give for `COc1cc2ncnc(Nc3ccc(F)c(Cl)c3)c2cc1OCCCN1CCOCC1` [gefitinib] here?
**A.** slow increase in currents

**Q.** And the “increase in ISC on basolateral addition” value (T84 cells; basolateral)?
**A.** slow but steady increase in ISC similar to that of NBMPR

**Q.** With `C#Cc1cccc(Nc2ncnc3cc(OCCOC)c(OCCOC)cc23)c1` [erlotinib] as the compound, how does the “currents on apical addition of the TKI” value (T84 cells; FIG. 12) read?
**A.** slow increase in currents

**Q.** And the “increase in ISC on basolateral addition” value (T84 cells; basolateral)?
**A.** increase in ISC similar to that of NBMPR

**Q.** What about the “patients who develop diarrhea” value [2] of the same compound?
**A.** 30%

**Q.** Which half-life [3] does the source give for `O=c1[nH]cc(F)c(=O)[nH]1` [5-FU, 5-fluorouracil] here?
**A.** 20 min

**Q.** With `Cn1c(=O)c2[nH]c(-c3ccccc3)nc2n(C)c1=O` [8-PT, 8-phenyltheophylline] as the compound, how does the “effect of antagonist on ISC induced by adenosine then NBMPR” value (T84 cells; 10 μM 8-PT after 1 μM adenosine and 10 μM NBMPR, basolateral, FIG. 4) read?
**A.** ISC returned to baseline levels

**Q.** And the “effect of antagonist on currents induced by erlotinib and adenosine” value (T84 cells; 10 μM 8-PT after 20 μM erlotinib and 1 μM adenosine, basolateral, FIG. 8)?
**A.** abolished

**Q.** And the “effect of antagonist on currents induced by gefitinib and adenosine” value (T84 cells; 10 μM 8-PT after 100 μM gefitinib and 1 μM adenosine, basolateral, FIG. 9)?
**A.** abolished

**Q.** And the “effect of antagonist on currents induced by apical erlotinib or gefitinib” value (T84 cells; 10 μM 8-PT apical, FIG. 12)?
**A.** abolished

**Q.** And the “induction of ISC by adenosine after pretreatment with antagonist” value (T84 cells; 10 μM 8-PT basolateral prior to 1 μM adenosine basolateral, FIG. 7 panel C)?
**A.** no induction of ISC

**Q.** What about the “effect of antagonist on currents induced by imatinib and adenosine” value (T84 cells; basolateral, FIG. 10) of the same compound?
**A.** abolished

**Q.** And the “effect of antagonist on ISC induced by NBMPR then adenosine” value (T84 cells; 8-PT after 10 μM NBMPR and 1 μM adenosine, basolateral, FIG. 6)?
**A.** reversed the increase in ISC to baseline activity

**Q.** With `CCN(CC)CCNC(=O)c1c(C)[nH]c(/C=C2\C(=O)Nc3ccc(F)cc32)c1C` [sunitinib] as the compound, how does the IC50 [1] read?
**A.** 50 µM
